Tests used:
Experiment in all cases: relative viability (nuclei count vs DMSO), 5 days (fraction); higher = more cells survive
[1] = compound: CN(C)CC1=CC(=CC=C1)N=C(C2=CC=CC=C2)C3=C(NC4=C3C=CC(=C4)C(=O)N(C)C)O + C[C@@H](Oc1cc(-c2cnn(C3CCNCC3)c2)cnc1N)c1c(Cl)ccc(F)c1Cl [Crizotinib] (partner 1 µM)
Outline: (§1)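 The day after seeding in 1536-well plates, lung cancer cell lines were treated by pin tool with a single drug, or with a fixed anchor-drug dose together with five library-drug doses (not always all listed) in √10 steps. After 5 days, a combined fix-and-stain solution (final 0.05% Triton X-100, 1% formaldehyde, 1 ug/ml Hoechst) was added. Nuclei counted on 4× images gave relative viability as treated counts over vehicle counts, reported as the median of duplicate plates.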

[2] = compound: CN(C)CC1=CC(=CC=C1)N=C(C2=CC=CC=C2)C3=C(NC4=C3C=CC(=C4)C(=O)N(C)C)O + CS(=O)(=O)CCNCc1ccc(-c2ccc3ncnc(Nc4ccc(OCc5cccc(F)c5)c(Cl)c4)c3c2)o1 [Lapatinib] (partner 2 µM)
Outline: as §1

[3] = compound: CN(C)CC1=CC(=CC=C1)N=C(C2=CC=CC=C2)C3=C(NC4=C3C=CC(=C4)C(=O)N(C)C)O + Nc1ncn([C@H]2C[C@H](O)[C@@H](CO)O2)c(=O)n1 [Decitabine] (partner 2 µM)
Outline: as §1

[4] = compound: CN(C)CC1=CC(=CC=C1)N=C(C2=CC=CC=C2)C3=C(NC4=C3C=CC(=C4)C(=O)N(C)C)O + Cc1cc(Nc2cc(N3CCN(C)CC3)nc(Sc3ccc(NC(=O)C4CC4)cc3)n2)n[nH]1 [Tozasertib] (partner 0.1 µM)
Outline: as §1

| Cell Line | relative viability ([1]; first compound 0.08 µM) | relative viability ([1]; first compound 0.253 µM) | relative viability ([1]; first compound 0.8 µM) | relative viability ([1]; first compound 2.53 µM) | relative viability ([1]; first compound 8 µM) | relative viability ([2]; first compound 0.08 µM) | relative viability ([2]; first compound 0.253 µM) | relative viability ([2]; first compound 0.8 µM) | relative viability ([2]; first compound 2.53 µM) | relative viability ([2]; first compound 8 µM) | relative viability ([3]; first compound 0.08 µM) | relative viability ([3]; first compound 0.253 µM) | relative viability ([3]; first compound 0.8 µM) | relative viability ([3]; first compound 2.53 µM) | relative viability ([3]; first compound 8 µM) | relative viability ([4]; first compound 0.08 µM) | relative viability ([4]; first compound 0.253 µM) | relative viability ([4]; first compound 0.8 µM) | relative viability ([4]; first compound 2.53 µM) | relative viability ([4]; first compound 8 µM) |
| --- | --- | --- | --- | --- | --- | --- | --- | --- | --- | --- | --- | --- | --- | --- | --- | --- | --- | --- | --- | --- |
| 201T | 1.03 | 1.03 | 1.02 | 1.02 | 0.981 | 0.95 | 1.01 | 1.01 | 1.02 | 0.981 | 0.836 | 0.874 | 0.849 | 0.855 | 0.738 | 0.937 | 0.97 | 0.857 | 0.904 | 0.809 |
| A-427 | 0.984 | 0.82 | 0.865 | 0.855 | 0.719 | 1.03 | 1.06 | 1.09 | 1.03 | 1.1 | 0.562 | 0.614 | 0.547 | 0.554 | 0.534 | 0.22 | 0.188 | 0.182 | 0.213 | 0.147 |
| ABC-1 | 1.17 | 1.12 | 1.01 | 0.764 | 0.891 | 1.19 | 1.13 | 1.02 | 0.827 | 0.938 | 1.38 | 0.939 | 1.2 | 0.99 | 0.904 | 0.198 | 0.173 | 0.15 | 0.179 | 0.171 |
| BEN | 0.791 | 0.739 | 0.866 | 0.876 | 0.641 | 0.734 | 0.647 | 0.72 | 0.685 | 0.656 | 0.674 | 0.913 | 0.787 | 0.69 | 0.771 | 0.619 | 0.493 | 0.5 | 0.426 | 0.538 |
| CAL-12T | 0.665 | 0.592 | 0.778 | 0.611 | 0.612 | – | 0.746 | 0.878 | – | 0.755 | – | – | – | – | – | 0.375 | 0.342 | 0.311 | 0.308 | 0.292 |
| COR-L23 | 0.675 | 0.603 | 0.622 | 0.532 | 0.553 | 1.05 | 0.895 | 0.922 | 0.92 | 0.975 | 0.442 | 0.422 | 0.433 | 0.429 | 0.401 | 0.185 | 0.226 | 0.201 | 0.205 | 0.154 |
| COR-L 105 | 0.857 | 0.892 | 0.882 | 0.644 | 0.625 | 0.384 | 0.406 | 0.318 | 0.357 | 0.349 | 1.12 | 0.621 | 0.635 | 0.667 | 0.628 | 0.372 | 0.369 | 0.336 | 0.346 | 0.361 |
| Calu-6 | 0.758 | 0.749 | 0.762 | 0.814 | 0.859 | 1.13 | 1.01 | 1.02 | 1.07 | 1.03 | – | – | – | – | – | – | – | – | – | – |
| ChaGo-K-1 | 1.18 | 1.1 | 1.1 | – | 1.11 | – | – | – | – | – | 0.524 | 0.516 | 0.523 | 0.418 | 0.485 | 0.235 | 0.25 | 0.217 | 0.22 | 0.213 |
| EBC-1 | 0.186 | 0.212 | 0.21 | 0.184 | 0.196 | 0.223 | 0.248 | 0.227 | 0.198 | 0.225 | – | – | – | – | – | – | – | – | – | – |
| EKVX | 0.842 | 0.921 | 1.03 | 0.879 | 0.981 | 0.196 | 0.294 | 0.205 | 0.224 | 0.23 | 0.41 | 0.321 | – | 0.36 | 0.34 | 0.445 | 0.387 | 0.459 | 0.378 | 0.323 |
| EMC-BAC-2 | 0.725 | 0.772 | 0.804 | 0.753 | 0.681 | 0.927 | 0.914 | 0.953 | 0.898 | 0.878 | 1.15 | 0.996 | 0.992 | 0.817 | 1.01 | 0.297 | 0.283 | 0.383 | 0.258 | 0.267 |
| EPLC-272H | 0.892 | 0.899 | 0.696 | 0.87 | 0.8 | 0.927 | 0.996 | 0.845 | 0.955 | 0.989 | 0.39 | 0.422 | 0.297 | 0.471 | 0.383 | 0.351 | 0.392 | 0.303 | 0.278 | 0.272 |
| H3255 | 0.958 | 0.782 | 0.756 | 0.795 | 0.85 | 0.25 | 0.31 | 0.235 | 0.222 | 0.292 | 0.599 | 0.605 | – | 0.586 | 0.593 | 0.528 | 0.575 | 0.65 | 0.71 | 0.484 |
| HARA | 1.02 | 1.02 | 1.05 | 1.02 | 1.11 | 0.794 | 0.842 | 0.686 | 0.803 | 0.744 | 0.452 | 0.595 | 0.537 | 0.554 | 0.443 | 0.11 | 0.125 | 0.0998 | 0.108 | 0.0768 |
| HCC-15 | 0.778 | 0.832 | 0.882 | 0.889 | 0.888 | 0.891 | 0.821 | 0.947 | 0.776 | 0.924 | 0.707 | 0.636 | 0.784 | 0.63 | 0.617 | 0.424 | 0.387 | 0.39 | 0.365 | 0.453 |
| HCC-44 | 0.801 | 0.752 | 0.785 | 0.727 | 0.89 | 0.953 | 1.03 | 0.986 | 0.937 | 1.03 | 0.989 | 0.94 | 0.941 | 0.919 | 0.968 | 1.08 | 0.836 | 1.03 | 0.927 | 0.862 |
| HCC-78 | 0.327 | 0.282 | 0.297 | 0.34 | 0.372 | 0.785 | 1.48 | 0.722 | 0.707 | 0.741 | 0.564 | 0.716 | 0.766 | 0.681 | 0.665 | 0.507 | 0.426 | 0.403 | 0.383 | 0.364 |
